# Assay results published in patent EP1235833B1 (GLAXO GROUP LIMITED, priority 1999, dated 2001).
# Assay: Acid stability: acid-mediated hydrolytic decomposition, simulated stomach conditions, HPLC
# Format: physicochemical
# Conditions: for Compound left (%): 0.3 mg/mL in dilute hydrochloric acid at pH 1, 25°C
# Method: Compounds were tested for their stability towards acid-mediated hydrolytic decomposition employing a test designed to simulate stomach conditions. Each compound was incubated at an initial concentration of 0.3 mg/mL in dilute hydrochloric acid at pH 1 for 24 hours at 25°C. HPLC was run immediately for t=0 and at intervals up to approximately 24 hours. The results for compounds of Example 2, part b, Example 9, and for comparative phosphoramidates of 2',3'-dideoxy-adenosine (Compound 1093) and 2',3'-didehydro-2',3'-dideoxy-adenosine (Compound 1001), described in W096/29336A, are given in the table below.
structure (smiles),measurement,setting,value
COC(=O)C(C)(C)NP(=O)(OC[C@@H]1C=C[C@H](n2cnc3c(NCC4CC4)nc(N)nc32)C1)Oc1ccccc1 (relative stereo) [Example 9],Compound left (%),Time 0 hr,100%
same,Compound left (%),Time 13 hr,96%
same,Compound left (%),Time 24 hr,94%
same,Acid stability in words,"after 24 hours, dilute hydrochloric acid at pH 1, 25°C",remained intact
